Assay results as given in patent US7033829B2, “Method to inhibit cell growth using oligonucleotides” (Trustees of Boston University, priority 2000, dated 2006).
Oligonucleotides are written 5' to 3', each unit as a sugar letter and its base; * is a phosphorothioate linkage, no mark a phosphodiester; rarer units and linkages stand in square brackets, end groups in braces. Plain capitals give the bases only. d = 2'-deoxy (DNA); {P} = phosphate

Experiments:
p53, E2F1 = assay: Western analysis of p53 and E2F1 in Jurkat cells; assay type: cell-based, human; settings: by 24 hours
Procedure: Oligonucleotides homologous to the telomere overhang repeat sequence (TTAGGG; SEQ ID NO:11), sequence (11mer-1: pGTTAGGGTTAG; SEQ ID NO: 5), complementary to this sequence (11mer-2: pCTAACCCTAAC; SEQ ID NO: 9) and unrelated to the telomere sequence (11mer-3: pGATCGATCGAT; SEQ ID NO: 10) were added to cultures of Jurkat cells, a line of human T cells, one of the cell types reported to undergo apoptosis in response to telomere disruption. Within 48 hours, 50% of the cells treated with 40 μM of SEQ ID NO: 5 had accumulated in the S phase, compared to 25–30% for control cells (p<0.0003, non-paired t-test; see FIGS. 19A–19D), and by 72 hours, 13% of these cells were apoptotic as determined by a sub-G0/G1 DNA content, compared to 2–3% of controls (p<0.007, non-paired t-test; see FIGS. 19E–19H). At 96 hours, 20±3% of the 11mer-1 treated cells were apoptotic compared with 3–5% of controls (p<0.0001, non-paired t-test). […] The fluorescence intensity of the cells was the same after all treatments at 4 hours and 24 hours.
Cells were plated at a density of 180,000 cells/ml in RPMI 1640 medium supplemented with 3% FBS. […] TUNEL-positive cells were detected by FACS analysis and confocal microscopy. […] Uptake of the oligonucleotides was assessed in 5–10 μm sections with a Carl Zeiss LSM 510 confocal laser microscope. […] Fluorescence was measured on the FL-1 channel. […]

[1] = test system: Normal human neonatal keratinocyte cells; assay: Cell yield of normal keratinocytes; assay type: cell-based; settings: 100 μM
Procedure: Normal human neonatal keratinocyte cells were cultured as described above in Example 1 for SCC12F cells, and treated with either 100 μM T2 or diluent as a control. Cells were harvested for cell counts. The cell yield in cultures treated with T2 was reduced by 63% compared to that of paired control cultures after three days (FIG. 5).

[2] = test system: Human melanoma cell lines CRL 1424, Malma, Sk Mel 2, and Sk Mel 28; assay: Cell yield of human melanoma cell lines; assay type: cell-based; settings: 100 μM; one week; any of four cell lines
Procedure: Human melanoma cell lines CRL 1424, Malma, Sk Mel 2, and Sk Mel 28 were obtained from the American Type Culture Collection (ATCC). The cell lines were maintained in DME+2% calf serum, and dosed with either water (diluent) with DME, or 100 μM T2 in DME. One week after dosage, cells were collected and counted by Coulter™ counter.

[3] = test system: p53, PCNA and the XPA protein; assay: Western blot of DNA repair proteins in keratinocytes; assay type: cell-based, human; settings: within 2 days of treatment
Procedure: Cells were treated with 100 μM pTpT or an equal volume of diluent alone for 48 hours. Total cellular proteins were collected in a buffer consisting of 0.25 M Tris HCl (pH 7.5), 0.375 M NaCl, 2.5% sodium deoxycholate, 1% Triton X-100, 25 mM MgCl2, 1 mM phenylmethyl sulfonyl fluoride, and 0.1 mg ml aprotinin. Proteins (100 μg per sample) were separated by 7.5–15% SDS-PAGE and transferred to a nitrocellulose membrane (Schleicher & Schuell, Keene, N. H.). After transfer, the gel was stained with Coomassie Blue to verify even loading as visualized by the residual high molecular weight proteins. Membranes were blocked in 0.05% Tween-20/PBS with 5% milk, (Bio-Rad Laboratories, Hercules, Calif.). Antibody reactions were performed with the following antibodies: anti p53 (AB-6), anti PCNA (Ab-2) (Oncogene Science), and anti XPA (FL-273) (Santa Cruz Biotechnology). Sheep anti-mouse Ig linked to horseradish peroxidase (Amersham, Arlington Heights, Ill.) (for p53 and PCNA) and goat anti-rabbit IgG (Bio-Rad)(for XPA) were used as the secondary antibodies. Binding was detected by the ECL detection kit (Amersham).
Western blot analysis was used to examine the effect of pTpT treatment on the expression of selected genes known to be involved in DNA repair.

pGTTAGGGTTAG (DNA {P}-dGdTdTdAdGdGdGdTdTdAdG) [SEQ ID NO: 5]
E2F1 level (p53, E2F1): concomitant increase in the level of the E2F1 transcription factor
p53 level (p53, E2F1): an increase in p53

thymidine dinucleotide [pTpT]
cell yield reduced compared to paired control cultures ([1]; after three days): 63%
number of cells ([1]; three days (control: one population doubling)): remained the same
cell yields [2]: marked decreases in cell yields
up-regulation of levels of p53, PCNA and XPA protein [3]: 2 to 3 fold
